Measured values from US9205161B2, “Disinfecting composition comprising a chloramine bleaching agent for removable dental appliances” (LMA Solutions, Inc., priority 2014, dated 2015).

System: BL21 E. coli cells
Experiment: Bacterial kill after contact in LB broth, plating on LB agar
Type: cell-based
Settings: 15 min exposure at 37° C.; for % Reduction Product / CFU/ml Product / Log reduction Product: MES 25 μM, NaDCC 0.9 mg/ml
Procedure: A working suspension of BL21 E. coli cells in LB broth (1.16×10^8 CFU/ml) was contacted for 15 min at 37° C. with either 1×PBS buffer (control), 2-(N-morpholino)ethanesulfonic acid (“MES”) (final conc. of 25 μM or 0.0049 mg/ml), Sodium Dichloroisocyanurate (“NaDCC”) (final conc. of 0.9 mg/ml), or MES (final conc. of 25 μM or 0.0049 mg/ml)+NaDCC (final conc. of 0.9 mg/ml). Lysogeny broth (LB), a nutritionally rich medium, is primarily used for the growth of bacteria.
After contact, ten-fold serial dilutions from 1:10 to 1:10^6 were prepared using D/E neutralizing broth and an aliquot at each dilution (100 μl) was plated onto an LB agar plate and incubated for 20 hours at 37° C.
The plate shown in FIG. 1A corresponds to treatments with MES-only at a plating dilution of 1:1×10^4. The plate shown in FIG. 1B corresponds to treatments with NaDCC-only at a plating dilution of 1:10. The plate shown FIG. 1C corresponds to treatment with MES+NaDCC at plating dilution of 1:10.

## O=S(=O)(O)CCN1CCOCC1 [MES only, 2-(N-morpholino)ethanesulfonic acid]
Plate dilution 1:1.0E+05, 100 ul plated
  Plate count (CFU): 128 CFU
  % Reduction Product: −10.3448%
  CFU/ml Product: 1.28E+08 CFU/ml
  Log reduction Product: −0.04

## O=c1nc([O-])n(Cl)c(=O)n1Cl.[Na+] [NaDCC only, Sodium Dichloroisocyanurate]
Plate dilution 1:1.0E+01, 100 ul plated
  Plate count (CFU): 331 CFU
  % Reduction Product: 99.9715%
  CFU/ml Product: 3.31E+04 CFU/ml
  Log reduction Product: 3.54
